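Growth conditions: 96-well plates. Treatment: test compound, 48 hours, 5 concentrations. Analysis: linear interpolation between bracketing concentrations; unreached endpoints set to highest concentration. TGI: total growth inhibition.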
These molecules were tested on SNB-19 CNS (assay: NCI-60 cell line screen, 48 h).

`CCOC(=O)C1CN(C2CC2)CCC1=O` (configuration not stated) and `CCOC(=O)C(C)c1nc2c(Cl)c3ncccc3cc2[nH]c1=O` (configuration not stated) cannot be ordered by TGI: over 100 µM for the first, over 100 µM for the second.

`Cc1cc2nc(-c3cc(C(C)(C)C)c(O)c(C(C)(C)C)c3)[nH]c2cc1C` and `c1ccc(-c2cnc(-c3ccc(-c4ncc(-c5ccccc5)o4)cc3)o2)cc1` cannot be ordered by TGI: over 100 µM for the first, over 100 µM for the second.

First: CC(C)C1=C2CCC3(C)C(CCC4C5C6OCC5(CCC6(C)C)CCC43C)C2(C)CC1 (configuration not stated)
Second: COC(=O)C1=C(O)C(C(=O)OC)[C@@]2(O)[C@@H](C(=O)OC)[C@H](C)[C@@H](C)[C@@H]1[C@@H]2C(=O)OC (some centres not stated)
The TGI of the first is lower: 98.6 µM for the first, over 100 µM for the second.

`O=C(OCC(OC(=O)c1ccccc1)C(OC(=O)c1ccccc1)C(OC(=O)c1ccccc1)c1cnn(-c2ccccc2)n1)c1ccccc1` (configuration not stated) showed a TGI of over 100 µM.

The molecules below were run on T-47D breast (assay: NCI-60 cell line screen, 48 h).

`CCOC(=O)C1CN(C2CC2)CCC1=O` (configuration not stated) and `CCOC(=O)C(C)c1nc2c(Cl)c3ncccc3cc2[nH]c1=O` (configuration not stated) cannot be ordered by TGI: over 100 µM for the first, over 100 µM for the second.

`Cc1cc2nc(-c3cc(C(C)(C)C)c(O)c(C(C)(C)C)c3)[nH]c2cc1C` and `c1ccc(-c2cnc(-c3ccc(-c4ncc(-c5ccccc5)o4)cc3)o2)cc1` cannot be ordered by TGI: over 100 µM for the first, over 100 µM for the second.

Going from `CC(C)C1=C2CCC3(C)C(CCC4C5C6OCC5(CCC6(C)C)CCC43C)C2(C)CC1` (configuration not stated) to `COC(=O)C1=C(O)C(C(=O)OC)[C@@]2(O)[C@@H](C(=O)OC)[C@H](C)[C@@H](C)[C@@H]1[C@@H]2C(=O)OC` (some centres not stated), the TGI rises from 63 µM to over 100 µM.

Molecule `O=C(OCC(OC(=O)c1ccccc1)C(OC(=O)c1ccccc1)C(OC(=O)c1ccccc1)c1cnn(-c2ccccc2)n1)c1ccccc1` (configuration not stated) has a TGI of over 100 µM.

The molecules below were run on NCI/ADR-RES ovarian (assay: NCI-60 cell line screen, 48 h).

`CCOC(=O)C1CN(C2CC2)CCC1=O` (configuration not stated) and `CCOC(=O)C(C)c1nc2c(Cl)c3ncccc3cc2[nH]c1=O` (configuration not stated) cannot be ordered by TGI: over 100 µM for the first, over 100 µM for the second.

`Cc1cc2nc(-c3cc(C(C)(C)C)c(O)c(C(C)(C)C)c3)[nH]c2cc1C` and `c1ccc(-c2cnc(-c3ccc(-c4ncc(-c5ccccc5)o4)cc3)o2)cc1` cannot be ordered by TGI: over 100 µM for the first, over 100 µM for the second.

Going from `CC(C)C1=C2CCC3(C)C(CCC4C5C6OCC5(CCC6(C)C)CCC43C)C2(C)CC1` (configuration not stated) to `O=C(OCC(OC(=O)c1ccccc1)C(OC(=O)c1ccccc1)C(OC(=O)c1ccccc1)c1cnn(-c2ccccc2)n1)c1ccccc1` (configuration not stated), the TGI rises from 39.6 µM to over 100 µM.

Each molecule was assayed on K-562 leukemia (assay: NCI-60 cell line screen, 48 h).

`CCOC(=O)C1CN(C2CC2)CCC1=O` (configuration not stated) and `CCOC(=O)C(C)c1nc2c(Cl)c3ncccc3cc2[nH]c1=O` (configuration not stated) cannot be ordered by TGI: over 100 µM for the first, over 100 µM for the second.

`Cc1cc2nc(-c3cc(C(C)(C)C)c(O)c(C(C)(C)C)c3)[nH]c2cc1C` and `c1ccc(-c2cnc(-c3ccc(-c4ncc(-c5ccccc5)o4)cc3)o2)cc1` cannot be ordered by TGI: over 43.1 µM for the first, over 100 µM for the second.

`O=C(OCC(OC(=O)c1ccccc1)C(OC(=O)c1ccccc1)C(OC(=O)c1ccccc1)c1cnn(-c2ccccc2)n1)c1ccccc1` (configuration not stated) and `COC(=O)C1=C(O)C(C(=O)OC)[C@@]2(O)[C@@H](C(=O)OC)[C@H](C)[C@@H](C)[C@@H]1[C@@H]2C(=O)OC` (some centres not stated) cannot be ordered by TGI: over 100 µM for the first, over 100 µM for the second.

The molecules below were run on HCC-2998 colon (assay: NCI-60 cell line screen, 48 h).

Going from `CCOC(=O)C1CN(C2CC2)CCC1=O` (configuration not stated) to `CC(C)C1=C2CCC3(C)C(CCC4C5C6OCC5(CCC6(C)C)CCC43C)C2(C)CC1` (configuration not stated), the TGI falls from over 100 µM to 33.7 µM.

`Cc1cc2nc(-c3cc(C(C)(C)C)c(O)c(C(C)(C)C)c3)[nH]c2cc1C` and `c1ccc(-c2cnc(-c3ccc(-c4ncc(-c5ccccc5)o4)cc3)o2)cc1` cannot be ordered by TGI: over 100 µM for the first, over 100 µM for the second.

`O=C(OCC(OC(=O)c1ccccc1)C(OC(=O)c1ccccc1)C(OC(=O)c1ccccc1)c1cnn(-c2ccccc2)n1)c1ccccc1` (configuration not stated) and `COC(=O)C1=C(O)C(C(=O)OC)[C@@]2(O)[C@@H](C(=O)OC)[C@H](C)[C@@H](C)[C@@H]1[C@@H]2C(=O)OC` (some centres not stated) cannot be ordered by TGI: over 100 µM for the first, over 100 µM for the second.

Each molecule was assayed on CAKI-1 renal (assay: NCI-60 cell line screen, 48 h).

`CCOC(=O)C1CN(C2CC2)CCC1=O` (configuration not stated) and `CCOC(=O)C(C)c1nc2c(Cl)c3ncccc3cc2[nH]c1=O` (configuration not stated) cannot be ordered by TGI: over 100 µM for the first, over 100 µM for the second.

`Cc1cc2nc(-c3cc(C(C)(C)C)c(O)c(C(C)(C)C)c3)[nH]c2cc1C` and `CC(C)C1=C2CCC3(C)C(CCC4C5C6OCC5(CCC6(C)C)CCC43C)C2(C)CC1` (configuration not stated) cannot be ordered by TGI: over 26.2 µM for the first, 38.3 µM for the second.

With `O=C(OCC(OC(=O)c1ccccc1)C(OC(=O)c1ccccc1)C(OC(=O)c1ccccc1)c1cnn(-c2ccccc2)n1)c1ccccc1` (configuration not stated) the TGI was over 100 µM.

Each molecule was assayed on HL-60(TB) leukemia (assay: NCI-60 cell line screen, 48 h).

Going from `CCOC(=O)C1CN(C2CC2)CCC1=O` (configuration not stated) to `CC(C)C1=C2CCC3(C)C(CCC4C5C6OCC5(CCC6(C)C)CCC43C)C2(C)CC1` (configuration not stated), the TGI falls from over 100 µM to 27.9 µM.

`Cc1cc2nc(-c3cc(C(C)(C)C)c(O)c(C(C)(C)C)c3)[nH]c2cc1C` and `c1ccc(-c2cnc(-c3ccc(-c4ncc(-c5ccccc5)o4)cc3)o2)cc1` cannot be ordered by TGI: over 100 µM for the first, over 100 µM for the second.

`O=C(OCC(OC(=O)c1ccccc1)C(OC(=O)c1ccccc1)C(OC(=O)c1ccccc1)c1cnn(-c2ccccc2)n1)c1ccccc1` (configuration not stated) and `COC(=O)C1=C(O)C(C(=O)OC)[C@@]2(O)[C@@H](C(=O)OC)[C@H](C)[C@@H](C)[C@@H]1[C@@H]2C(=O)OC` (some centres not stated) cannot be ordered by TGI: over 100 µM for the first, over 100 µM for the second.

What follows are molecules tested on SK-MEL-28 melanoma (assay: NCI-60 cell line screen, 48 h).

`CCOC(=O)C1CN(C2CC2)CCC1=O` (configuration not stated) and `CCOC(=O)C(C)c1nc2c(Cl)c3ncccc3cc2[nH]c1=O` (configuration not stated) cannot be ordered by TGI: over 100 µM for the first, over 100 µM for the second.

Going from `Cc1cc2nc(-c3cc(C(C)(C)C)c(O)c(C(C)(C)C)c3)[nH]c2cc1C` to `CC(C)C1=C2CCC3(C)C(CCC4C5C6OCC5(CCC6(C)C)CCC43C)C2(C)CC1` (configuration not stated), the TGI falls from over 100 µM to 32.8 µM.
